Source: patent publication US4393225A, “AI-77 Compounds and pharmaceutically acceptable salts thereof” (Asahi Kasei Kogyo Kabushiki Kaisha, priority 1979, dated 1983)

Each compound was assayed on ulcer (assay: Anti-ulcer test (restraint and water immersion ulcer in rats, i.p.)). Conditions: Rattus norvegicus, ip, read-out: % Inhibition of Ulcer.
Type: in vivo, Male Wistar rats
Outline: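 Male Wistar rats (~150 g), fasted 24 h, dosed i.p. with compound in physiological saline; 1 h later restrained and immersed to xiphisternum in 21 °C water for 6 h. Stomachs examined microscopically, ulcers scored 0–3, and percent inhibition calculated.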

SMILES	inhibition in vivo at 25 mg/kg	inhibition in vivo at 50 mg/kg
COC(C(=O)NC(CC(C)C)C1Cc2cccc(O)c2C(=O)O1)C(O)C(N)CC(N)=O (stereo not shown) [VII-8-1]	89%	–
CC(C)CC(NC(=O)C(OC(=O)C(Cl)(Cl)Cl)C1OC(=O)CC1N)C1Cc2cccc(OC(=O)C(Cl)(Cl)Cl)c2C(=O)O1 (stereo not shown) [IIIa-11-4]	–	56%

Same assay, conditions: Rattus norvegicus, ip; 25 mg/kg i.p.; read-out: % Inhibition of Ulcer

SMILES	inhibition in vivo at 25 mg/kg
CCCCNC(=O)CC(NC)C(O)C(O)C(=O)NC(CC(C)C)C1Cc2cccc(OCC)c2C(=O)O1 (stereo not shown) [VII-23-2]	66%
CC(C)CC(NC(=O)C(O)C(O)C(N)CC(=O)NCCc1ccc2ccccc2c1)C1Cc2cccc(O)c2C(=O)O1 (stereo not shown) [VII-1-19]	78%
CC(C)CC(NC(=O)C(O)C(O)C(N)CC(=O)NCc1ccco1)C1Cc2cccc(O)c2C(=O)O1 (stereo not shown) [VII-1-14]	89%
CCNC(CC(N)=O)C(O)C(O)C(=O)NC(CC(C)C)C1Cc2cccc(OC)c2C(=O)O1 (stereo not shown) [VII-14-2]	83%
COC(C)CCNC(=O)CC(N)C(O)C(O)C(=O)NC(CC(C)C)C1Cc2cccc(O)c2C(=O)O1 (stereo not shown) [VII-1-26]	94%
CC(C)CC(NC(=O)C(O)C(O)C(N)CC(=O)NCC1CCCCC1)C1Cc2cccc(O)c2C(=O)O1 (stereo not shown) [VII-1-12]	94%
CCNC(=O)CC(NC(C)=O)C(O)C(OC)C(=O)NC(CC(C)C)C1Cc2cccc(O)c2C(=O)O1 (stereo not shown) [VII-35-1]	66%
CCCCCCCC(=O)NC(CC(N)=O)C(O)C(O)C(=O)NC(CC(C)C)C1Cc2cccc(O)c2C(=O)O1 (stereo not shown) [VII-28-3]	66%

Same assay, conditions: Rattus norvegicus, ip; 50 mg/kg i.p.; read-out: % Inhibition of Ulcer

SMILES	inhibition in vivo at 50 mg/kg
COc1cccc2c1C(=O)OC(C(CC(C)C)NC(=O)C(O)C1OC(=O)CC1NC(=O)C(Cl)(Cl)Cl)C2 (stereo not shown) [IIIa-5-7]	44%
COc1ccc(COc2cccc3c2C(=O)OC(C(CC(C)C)NC(=O)C(O)C2OC(=O)CC2N)C3)cc1 (stereo not shown) [IIIa-13-23]	72%
CCOc1cccc2c1C(=O)OC(C(CC(C)C)NC(=O)C(OCC)C1OC(=O)CC1NC(=O)CC(C)C)C2 (stereo not shown) [IIIa-7-3]	33%
CCCCCCCCCCCCCCCCCC(=O)Oc1cccc2c1C(=O)OC(C(CC(C)C)NC(=O)C(O)C1C=CC(=O)O1)C2 (stereo not shown) [IVa-3-9]	33%
CCCCNC1CC(=O)OC1C(O)C(=O)NC(CC(C)C)C1Cc2cccc(OCCCBr)c2C(=O)O1 (stereo not shown) [IIIa-22-92]	94%
COC1CCC(C(=O)NC2CC(=O)OC2C(O)C(=O)NC(CC(C)C)C2Cc3cccc(O)c3C(=O)O2)CC1 (stereo not shown) [IIIa-1-73]	66%
COC(C(=N)NC(CC(C)C)C1Cc2cccc(OC(C)=O)c2C(=O)O1)C(O)C(N)CC(=O)O (stereo not shown) [Vb-9-1]	66%
CC(=O)OC1CCC(C(=O)NC2CC(=O)OC2C(O)C(=O)NC(CC(C)C)C2Cc3cccc(O)c3C(=O)O2)CC1 (stereo not shown) [IIIa-1-74]	66%
CC(C)CC(NC(=O)C(O)C1OC(=O)CC1N)C1Cc2cccc(OCc3ccccc3)c2C(=O)O1 (stereo not shown) [IIIa-13-9]	89%
CCNC1CC(=O)OC1C(OC(C)=O)C(=O)NC(CC(C)C)C1Cc2cccc(O)c2C(=O)O1 (stereo not shown) [IIIa-19-1]	66%
CCNC1CC(=O)OC1C(OC(=O)CC)C(=O)NC(CC(C)C)C1Cc2cccc(OC(=O)C(C)C)c2C(=O)O1 (stereo not shown) [IIIa-20-2]	56%
COc1ccc(C(=O)Oc2cccc3c2C(=O)OC(C(CC(C)C)NC(=O)C(O)C2C=CC(=O)O2)C3)cc1 (stereo not shown) [IVa-3-16]	33%
CCCCCCCCCCCCCCCCCC(=O)NC1CC(=O)OC1C(O)C(=O)NC(CC(C)C)C1Cc2cccc(OC(C)=O)c2C(=O)O1 (stereo not shown) [IIIa-4-3]	33%
CC(=O)OC(C(=O)NC(CC(C)C)C1Cc2cccc(O)c2C(=O)O1)C1OC(=O)CC1NC(=O)C1CCCO1 (stereo not shown) [IIIa-2-6]	44%
CCCCOc1cccc2c1C(=O)OC(C(CC(C)C)NC(=O)C(O)C1OC(=O)CC1N)C2 (stereo not shown) [IIIa-13-3]	100%
CCCCCCCCCCCCCCCCCCOc1cccc2c1C(=O)OC(C(CC(C)C)NC(=O)C(O)C1OC(=O)CC1NCCCC)C2 (stereo not shown) [IIIa-22-78]	72%
CC(C)CCOc1cccc2c1C(=O)OC(C(CC(C)C)NC(=O)C(O)C1C=CC(=O)O1)C2 (stereo not shown) [IVa-4-4]	44%
CCOc1cccc2c1C(=O)OC(C(CC(C)C)NC(=O)C(OC(=O)CC)C1OC(=O)CC1N)C2 (stereo not shown) [IIIa-14-9]	56%
CCOc1cccc2c1C(=O)OC(C(CC(C)C)NC(=O)C(O)C1OC(=O)CC1NC(=O)Cc1ccccc1)C2 (stereo not shown) [IIIa-5-20]	44%

SMILES	inhibition in vivo at 50 mg/kg
CCCCCc1ccc(C(=O)NC2CC(=O)OC2C(O)C(=O)NC(CC(C)C)C2Cc3cccc(O)c3C(=O)O2)cc1 (stereo not shown) [IIIa-1-76]	66%
CCOc1cccc2c1C(=O)OC(C(CC(C)C)NC(=O)C(O)C1OC(=O)CC1NC(=O)CCCCC(C)CC)C2 (stereo not shown) [IIIa-5-55]	33%
CCOc1cccc2c1C(=O)OC(C(CC(C)C)NC(=O)C(O)C1OC(=O)CC1NC(=O)C(Cl)(Cl)Cl)C2 (stereo not shown) [IIIa-5-13]	33%
CCOc1cccc2c1C(=O)OC(C(CC(C)C)NC(=O)C(OC)C1OC(=O)CC1NC(=O)C1CCCO1)C2 (stereo not shown) [IIIa-7-6]	22%
CC(C)CC(NC(=O)C(O)C1OC(=O)CC1NC(=O)c1cocc1C(=O)O)C1Cc2cccc(O)c2C(=O)O1 (stereo not shown) [IIIa-1-60]	66%
CCOc1cccc2c1C(=O)OC(C(CC(C)C)NC(=O)C(O)C1OC(=O)CC1N)C2 (stereo not shown) [IIIa-13-2]	94%
CC(C)CC(NC(=O)C(O)C1OC(=O)CC1NC(=O)c1cccn1C)C1Cc2cccc(O)c2C(=O)O1 (stereo not shown) [IIIa-1-29]	66%
CCCCCCC(=O)OC(C(=O)NC(CC(C)C)C1Cc2cccc(O)c2C(=O)O1)C1C=CC(=O)O1 (stereo not shown) [IVa-1-8]	33%
CCOc1cccc2c1C(=O)OC(C(CC(C)C)NC(=N)C(OC(C)=O)C(O)C(N)CC(=O)O)C2 (stereo not shown) [Vb-6-1]	66%
COC(C)CC(=O)NC1CC(=O)OC1C(O)C(=O)NC(CC(C)C)C1Cc2cccc(OC(C)=O)c2C(=O)O1 (stereo not shown) [IIIa-4-6]	44%
CC(C)CC(NC(=O)C(O)C1C=CC(=O)O1)C1Cc2cccc(OCC3CCCCC3)c2C(=O)O1 (stereo not shown) [IVa-4-11]	33%
CCCCOC(C(=O)NC(CC(C)C)C1Cc2cccc(OC)c2C(=O)O1)C1OC(=O)CC1NC (stereo not shown) [IIIa-33-1]	56%
CC(C)CC(NC(=O)C(O)C1OC(=O)CC1NCc1ccccc1)C1Cc2cccc(O)c2C(=O)O1 (stereo not shown) [IIIa-18-14]	89%
CCCC(=O)NC1CC(=O)OC1C(O)C(=O)NC(CC(C)C)C1Cc2cccc(OC(C)C)c2C(=O)O1 (stereo not shown) [IIIa-5-121]	33%
CNC(CC(=O)O)C(O)C(O)C(=N)NC(CC(C)C)C1Cc2cccc(O)c2C(=O)O1 (stereo not shown) [Vb-19-1]	100%
CCCCCC(=O)OC(C(=O)NC(CC(C)C)C1Cc2cccc(O)c2C(=O)O1)C1C=CC(=O)O1 (stereo not shown) [IVa-1-7]	44%
CCCCNC1CC(=O)OC1C(O)C(=O)NC(CC(C)C)C1Cc2cccc(OCCCC)c2C(=O)O1 (stereo not shown) [IIIa-22-76]	94%
COC(C)(C)CC(=O)NC1CC(=O)OC1C(O)C(=O)NC(CC(C)C)C1Cc2cccc(O)c2C(=O)O1 (stereo not shown) [IIIa-1-83]	66%
CCC(=O)OC(C(=O)NC(CC(C)C)C1Cc2cccc(OC(=O)C(C)C)c2C(=O)O1)C1OC(=O)CC1NC(C)=O (stereo not shown) [IIIa-3-2]	33%

Same assay, conditions: rat, in vivo

SMILES	anti-ulcer activity (in words)
CC(C)CC(NC(=N)C(O)C(O)C(N)CC(=O)O)C1Cc2cccc(O)c2C(=O)O1 (stereo not shown) [AI-77-A]	high anti-ulcer activity
